Source: patent US20090062273A1, “3-H-pyrazolopyridines and salts thereof, pharmaceutical compositions comprising same, methods of preparing same and uses of same” (priority 2006, published 2009)

Target: T1, human insuline receptor (Ins-R) (Homo sapiens, UniProt P06213)
T1 construct: GST-tagged recombinant kinase domain of the human insuline receptor; GST; purchased ProQinase, Freiburg, Germany; host or cells: SF-9 cells
Assay: InsR HTRF assay (selectivity vs. Tie2 assay 2)
Assay type: biochemical
Conditions: IC50 assay 4/IC50 assay 2
Experimental: Inhibitory activity of compounds against the kinase activity of the insulin receptor was quantified employing the Ins-R HTRF assay as described in the following paragraphs.
GST-tagged recombinant kinase domain of the human insuline receptor (Ins-R, purchase from ProQinase, Freiburg, Germany) expressed in SF-9 cells was used as kinase. As substrate for the kinase reaction biotinylated poly-(Glu,Tyr) (Cis biointernational, France) was used.
Ins-R was incubated for 20 min at 22° C. in the presence of different concentrations of test compounds in 5 μl assay buffer [50 mM Hepes/NaOH pH 7, 15 mM MnCl2, 1 mM dithiothreitol, 0.1 μM sodium ortho-vanadate, 0.015% (v/v) PEG20000, 10 μM adenosine-tri-phosphate (ATP), 0.3 μg/ml substrate, 1% (v/v) dimethylsulfoxide]. The concentration of Ins-R was adjusted depending of the activity of the enzyme lot and was chosen appropriate to have the assay in the linear range, typical concentrations were in the range of 10 pg/μL. The reaction was stopped by the addition of 5 μl of a solution of HTRF detection reagents (0.1 μM streptavidine-XLent and 1 nM PT66-Eu-Chelate, an europium-chelate labelled anti-phospho-tyrosine antibody from Perkin Elmer) in an aqueous EDTA-solution (80 mM EDTA, 0.2% (w/v) bovine serum albumin in 50 mM HEPES/NaOH pH 7.0).
The resulting mixture was incubated 1 h at 22° C. to allow the binding of the biotinylated phosphorylated peptide to the streptavidine-XLent and the PT66-Eu-Chelate. Subsequently the amount of phosphorylated substrate was evaluated by measurement of the resonance energy transfer from the PT66-Eu-Chelate to the streptavidine-XLent. Therefore, the fluorescence emissions at 620 nm and 665 nm after excitation at 350 nm was measured in a HTRF reader, e.g. a Rubystar (BMG Labtechnologies, Offenburg, Germany) or a ViewLux (Perkin-Elmer). The ratio of the emissions at 665 nm and at […] was taken as the measure for the amount of phosphorylated substrate. The data were normalised (enzyme reaction without inhibitor=0% inhibition, all other assay components but no enzyme=100% inhibition) and IC50 values were calculated by a 4 parameter fit using an inhouse software.

T1 sequence (P06213 1023-1298 limits assumed): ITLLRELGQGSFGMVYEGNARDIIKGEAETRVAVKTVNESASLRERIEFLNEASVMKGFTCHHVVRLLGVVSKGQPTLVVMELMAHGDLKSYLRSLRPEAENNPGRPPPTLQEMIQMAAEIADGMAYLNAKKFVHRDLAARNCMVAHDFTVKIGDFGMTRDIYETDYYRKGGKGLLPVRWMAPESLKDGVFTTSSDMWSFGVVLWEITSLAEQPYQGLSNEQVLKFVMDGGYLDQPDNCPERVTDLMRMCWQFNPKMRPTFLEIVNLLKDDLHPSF

SMILES	Selectivity vs. InsR [fold]
O=C(Nc1ccc(-c2cncc3c2cnn3CCO)cc1)Nc1cc(C(F)(F)F)ccc1F [Example 8.2, 1-(2-Fluoro-5-trifluoromethyl-phenyl)-3-{4-[1-(2-hydroxy-ethyl)-1H-pyrazolo[3,4-c]pyridin-4-yl]-phenyl}-urea]	>50
CCn1ncc2c(-c3ccc(NC(=O)Nc4cc(C(F)(F)F)ccc4F)cc3)cncc21 [Example 10.5, 1-[4-(1-Ethyl-1H-pyrazolo[3,4-c]pyridin-4-yl)-phenyl]3-(2-fluoro-5-trifluoromethyl-phenyl)-urea]	>50
Cc1ccc(F)c(NC(=O)Nc2ccc(-c3cncc4c3cnn4C)cc2)c1 [Example 1.3, 1-(2-Fluoro-5-methyl-phenyl)-3-[4-(1-methyl-1H-pyrazolo[3,4-c]pyridin-4-yl)-phenyl]-urea]	>50
COCCn1ncc2c(-c3ccc(NC(=O)Nc4cc(C)ccc4F)cc3)cncc21 [Example 12.3, 1-(2-Fluoro-5-methyl-phenyl)-3-{4-[1-(2-methoxy-ethyl)-1H-pyrazolo[3,4-c]pyridin-4-yl]-phenyl}-urea]	>50
Cn1ncc2c(-c3ccc(NC(=O)Nc4cc(C(F)(F)F)ccc4Cl)cc3)cncc21 [Example 1.13, 1-(2-Chloro-5-trifluoromethyl-phenyl)-3-[4-(1-methyl-1H-pyrazolo[3,4-c]pyridin-4-yl)-phenyl]-urea]	>50
Cn1ncc2c(-c3ccc(NC(=O)Nc4cccc(C(F)(F)F)c4)c(F)c3)cncc21 [Example 3.1, 1-[2-Fluoro-4-(1-methyl-1H-pyrazolo[3,4-c]pyridin-4-yl)-phenyl]-3-(3-trifluoromethyl-phenyl)-urea]	>50
CN1CCN(Cc2ccc(NC(=O)Nc3ccc(-c4cncc5c4cnn5C)cc3)cc2C(F)(F)F)CC1 [Example 6.4, 1-[4-(4-Methyl-piperazin-1-ylmethyl)-3-trifluoromethyl-phenyl]-3-[4-(1-methyl-1H-pyrazolo[3,4-c]pyridin-4-yl)-phenyl]-urea]	>50
O=C(Nc1ccc(-c2cncc3c2cnn3CCO)cc1F)Nc1cc(C(F)(F)F)ccc1F [Example 8.1, 1-{2-Fluoro-4-[1-(2-hydroxy-ethyl)-1H-pyrazolo[3,4-c]pyridin-4-yl]-phenyl}-3-(2-fluoro-5-trifluoromethyl-phenyl)-urea]	>50
COCCn1ncc2c(-c3ccc(NC(=O)Nc4cccc(C(F)(F)F)c4)c(F)c3)cncc21 [Example 12.4, 1-{2-Fluoro-4-[1-(2-methoxy-ethyl)-1H-pyrazolo[3,4-c]pyridin-4-yl]-phenyl}-3-(3-trifluoromethyl-phenyl)-urea]	>50
Cn1ncc2c(-c3ccc(NC(=O)Nc4cc(C(F)(F)F)ccn4)cc3)cncc21 [Example 1.9, 1-[4-(1-Methyl-1H-pyrazolo[3,4-c]pyridin-4-yl)-phenyl]-3-(4-trifluoromethyl-pyridin-2-yl)-urea]	>50
O=C(Nc1cccc(C(F)(F)F)c1)Nc1ccc(-c2cncc3c2cnn3CCO)cc1F [Example 8.5, 1-{2-Fluoro-4-[1-(2-hydroxy-ethyl)-1H-pyrazolo[3,4-c]pyridin-4-yl]-phenyl}-3-(3-trifluoromethyl-phenyl)-urea]	>50
Cc1cc(-c2cncc3c2cnn3C)ccc1NC(=O)Nc1cccc(C(F)(F)F)c1 [Example 4.1, 1-[2-Methyl-4-(1-methyl-1H-pyrazolo[3,4-c]pyridin-4-yl)-phenyl]-3-(3-trifluoromethyl-phenyl)-urea]	>50
Cn1ncc2c(-c3ccc(NC(=O)Nc4cc(C(F)(F)F)ccc4F)cc3)cncc21 [Example 1.2, 1-(2-Fluoro-5-trifluoromethyl-phenyl)-3-[4-(1-methyl-1H-pyrazolo[3,4-c]pyridin-4-yl)-phenyl]-urea]	>50
CN(C(=O)Nc1cccc(C(F)(F)F)c1)c1ccc(-c2cncc3c2cnn3C)cc1 [Example 6.1, 1-Methyl-1-[4-(1-methyl-1H-pyrazolo[3,4-c]pyridin-4-yl)-phenyl]-3-(3-trifluoromethyl-phenyl)-urea]	>25
CCn1ncc2c(-c3ccc(NC(=O)Nc4cc(C(F)(F)F)ccc4F)c(F)c3)cncc21 [Example 11.2, 1-[4-(1-Ethyl-1H-pyrazolo[3,4-c]pyridin-4-yl)-2-fluoro-phenyl]-3-(2-fluoro-5-trifluoromethyl-phenyl)-urea]	>50
CCn1ncc2c(-c3ccc(NC(=O)Nc4cc(C)ccc4F)c(F)c3)cncc21 [Example 11.3, 1-[4-(1-Ethyl-1H-pyrazolo[3,4-c]pyridin-4-yl)-2-fluoro-phenyl]-3-(2-fluoro-5-methyl-phenyl)-urea]	>50

Next, values leading:

Selectivity vs. InsR [fold]	SMILES
>50	CC(C)c1cc(NC(=O)Nc2ccc(-c3cncc4c3cnn4C)cc2)n(-c2cccc(F)c2)n1 [Example 15.1, 1-[2-(3-Fluoro-phenyl)-5-isopropyl-2H-pyrazol-3-yl]-3-[4-(1-methyl-1H-pyrazolo[3,4-c]pyridin-4-yl)-phenyl]-urea]
>50	COCCn1ncc2c(-c3ccc(NC(=O)Nc4cc(C(F)(F)F)ccc4F)c(F)c3)cncc21 [Example 12.5, 1-{2-Fluoro-4-[1-(2-methoxy-ethyl)-1H-pyrazolo[3,4-c]pyridin-4-yl]-phenyl}-3-(2-fluoro-5-trifluoromethyl-phenyl)-urea]
>50	Cn1ncc2c(-c3ccc(NC(=O)Nc4cc(C(C)(C)C)nn4-c4ccc(F)cc4)cc3)cncc21 [Example 15.7, 1-[5-tert-Butyl-2-(4-fluoro-phenyl)-2H-pyrazol-3-yl]-3-[4-(1-methyl-1H-pyrazolo[3,4-c]pyridin-4-yl)-phenyl]-urea]
>50	CN(C)CCN(C)c1ccc(C(F)(F)F)cc1NC(=O)Nc1ccc(-c2cncc3c2cnn3C)cc1 [Example 13.13, 1-{2-[(2-Dimethylamino-ethyl)-methyl-amino]-5-trifluoromethyl-phenyl}-3-[4-(1-methyl-1H-pyrazolo[3,4-c]pyridin-4-yl)-phenyl]-urea]
>50	Cn1ncc2c(-c3ccc(NC(=O)Nc4cc(C(C)(C)C)nn4-c4ccncc4)cc3)cncc21 [Example 15.10, 1-(5-tert-Butyl-2-pyridin-4-yl-2H-pyrazol-3-yl)-3-[4-(1-methyl-1H-pyrazolo[3,4-c]pyridin-4-yl)-phenyl]-urea]
>50	Cn1ncc2c(-c3ccc(NC(=O)Nc4cc(C(C)(C)C)nn4-c4cncc(F)c4)c(F)c3)cncc21 [Example 15.13, 1-[5-tert-Butyl-2-(5-fluoro-pyridin-3-yl)-2H-pyrazol-3-yl]-3-[2-fluoro-4-(1-methyl-1H-pyrazolo[3,4-c]pyridin-4-yl)-phenyl]-urea]
>50	Cn1nc(C(C)(C)C)cc1NC(=O)Nc1ccc(-c2cncc3c2cnn3C)cc1 [Example 14.3, 1-(5-tert-Butyl-2-methyl-2H-pyrazol-3-yl)-3-[4-(1-methyl-1H-pyrazolo[3,4-c]pyridin-4-yl)-phenyl]-urea]
>50	CN1CCN(Cc2ccc(NC(=O)Nc3ccc(-c4cncc5c4cnn5C)cc3F)cc2C(F)(F)F)CC1 [Example 13.6, 1-[2-Fluoro-4-(1-methyl-1H-pyrazolo[3,4-c]pyridin-4-yl)-phenyl]-3-[4-(4-methyl-piperazin-1-ylmethyl)-3-trifluoromethyl-phenyl]-urea]
>50	Cn1ncc2c(-c3ccc(NC(=O)Nc4cc(C(C)(C)C)nn4-c4cncc(F)c4)cc3)cncc21 [Example 15.12, 1-[5-tert-Butyl-2-(5-fluoro-pyridin-3-yl)-2H-pyrazol-3-yl]-3-[4-(1-methyl-1H-pyrazolo[3,4-c]pyridin-4-yl)-phenyl]-urea]
>50	COc1cccc(-n2nc(C(C)(C)C)cc2NC(=O)Nc2ccc(-c3cncc4c3cnn4C)cc2)c1 [Example 15.5, 1-[5-tert-Butyl-2-(3-methoxy-phenyl)-2H-pyrazol-3-yl]-3-[4-(1-methyl-1H-pyrazolo[3,4-c]pyridin-4-yl)-phenyl]-urea]
>50	CN(C)C1CCN(c2ccc(C(F)(F)F)cc2NC(=O)Nc2ccc(-c3cncc4c3cnn4C)cc2)C1 (stereo not drawn) [Example 13.12, 1-[2-(3-Dimethylamino-pyrrolidin-1-yl)-5-trifluoromethyl-phenyl]-3-[4-(1-methyl-1H-pyrazolo[3,4-c]pyridin-4-yl)-phenyl]-urea]
